This note sets out measurements from US6552216B1, “Molecular model for VLA-4 inhibitors” (Biogen, Inc., priority 1996, dated 2003).

pIC50: −log10 of the molar value.

The target of this assay is VLA-4 (Homo sapiens, UniProt P05556+P13612). Put plainly: VLA-4 direct binding assay (DBA).
Source text: (§1) Those skilled in the art routinely perform such assays, and can readily determine the activity of the experimental compound.
as §1

VLA-4, sequence (P13612 34-1032): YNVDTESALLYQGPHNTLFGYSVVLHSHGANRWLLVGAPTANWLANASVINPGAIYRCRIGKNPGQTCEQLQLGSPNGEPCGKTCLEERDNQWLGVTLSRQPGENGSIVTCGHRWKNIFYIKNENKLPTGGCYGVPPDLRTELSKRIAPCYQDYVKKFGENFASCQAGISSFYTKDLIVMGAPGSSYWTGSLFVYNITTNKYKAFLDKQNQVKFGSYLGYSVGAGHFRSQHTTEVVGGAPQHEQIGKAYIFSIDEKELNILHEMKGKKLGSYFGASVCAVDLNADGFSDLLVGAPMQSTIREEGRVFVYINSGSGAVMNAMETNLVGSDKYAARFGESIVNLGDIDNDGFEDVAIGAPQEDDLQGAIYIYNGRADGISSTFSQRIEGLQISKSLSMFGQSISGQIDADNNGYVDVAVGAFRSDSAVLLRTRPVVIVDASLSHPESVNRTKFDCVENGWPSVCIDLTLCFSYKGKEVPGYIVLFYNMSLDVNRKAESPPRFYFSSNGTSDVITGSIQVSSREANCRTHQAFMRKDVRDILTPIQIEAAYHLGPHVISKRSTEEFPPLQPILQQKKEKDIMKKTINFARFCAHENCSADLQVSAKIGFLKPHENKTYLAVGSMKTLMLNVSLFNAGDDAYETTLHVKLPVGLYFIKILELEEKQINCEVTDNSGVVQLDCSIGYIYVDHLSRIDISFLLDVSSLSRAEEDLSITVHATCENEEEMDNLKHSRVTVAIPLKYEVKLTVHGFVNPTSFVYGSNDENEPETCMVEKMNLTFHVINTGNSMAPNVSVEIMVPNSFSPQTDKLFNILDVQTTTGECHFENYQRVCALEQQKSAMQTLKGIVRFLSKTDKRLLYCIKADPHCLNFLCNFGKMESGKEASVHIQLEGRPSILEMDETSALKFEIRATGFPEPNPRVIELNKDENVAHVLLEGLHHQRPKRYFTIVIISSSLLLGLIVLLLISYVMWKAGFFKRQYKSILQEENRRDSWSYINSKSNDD
VLA-4, sequence (P05556 21-798): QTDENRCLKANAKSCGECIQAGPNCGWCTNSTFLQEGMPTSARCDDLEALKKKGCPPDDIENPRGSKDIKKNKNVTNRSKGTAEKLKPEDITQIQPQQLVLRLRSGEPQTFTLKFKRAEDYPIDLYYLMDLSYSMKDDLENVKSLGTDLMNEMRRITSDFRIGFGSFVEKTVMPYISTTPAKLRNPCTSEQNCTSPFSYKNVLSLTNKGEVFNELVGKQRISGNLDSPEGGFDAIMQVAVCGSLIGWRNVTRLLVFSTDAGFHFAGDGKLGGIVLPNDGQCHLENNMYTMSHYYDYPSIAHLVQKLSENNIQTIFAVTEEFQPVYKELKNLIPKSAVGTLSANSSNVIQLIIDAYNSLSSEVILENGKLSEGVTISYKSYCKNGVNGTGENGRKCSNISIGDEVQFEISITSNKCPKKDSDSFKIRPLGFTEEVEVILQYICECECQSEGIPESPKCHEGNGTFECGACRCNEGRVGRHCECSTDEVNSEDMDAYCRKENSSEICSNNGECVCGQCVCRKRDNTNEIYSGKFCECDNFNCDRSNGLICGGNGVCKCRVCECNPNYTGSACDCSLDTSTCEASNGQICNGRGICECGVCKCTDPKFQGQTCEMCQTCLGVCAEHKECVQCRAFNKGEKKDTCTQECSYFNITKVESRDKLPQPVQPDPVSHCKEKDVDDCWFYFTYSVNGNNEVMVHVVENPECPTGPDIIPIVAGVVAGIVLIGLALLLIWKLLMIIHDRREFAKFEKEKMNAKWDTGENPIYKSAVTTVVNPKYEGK

Regarding `CC(C)C[C@H](NC(=O)Cc1ccccc1)C(=O)N[C@@H](CC(=O)O)C(=O)N[C@H](C(=O)N1CCC[C@H]1C(=O)O)C(C)C` [Phenylacetyl-Leu-Asp-Val-Pro], the negative-log IC50 (pIC50) (usually −log10 of the IC50, conventionally taken in molar units) is 5.70.
